Data from patent US11491134B2, “Composition for inhibiting skin cell proliferation and/or anti-inflammation method for inhibiting skin cell proliferation and/or anti-inflammation and method for treating skin diseases and/or inflammatory diseases” (Industrial Technology Research Institute, priority 2019, dated 2022).

Test system: keratinocytes, HaCaT cells
Assay: Inhibition rate on keratinocyte (HaCaT cell) proliferation, MTT
Assay type: cell-based
Settings: Homo sapiens
Description: Dimethyl sulfoxide (DMSO) was used as a solvent to prepare apigenin test samples with different concentrations and luteolin test samples with different concentrations. 9 batches of experiments were performed, which respectively were Batch 1 to Batch 9. There were 6 independent experiments in each batch of experiments. In each independent experiment, inhibition rate of an apigenin test sample with a specific concentration on keratinocyte proliferation and inhibition rate of a luteolin test sample with a specific concentration on keratinocyte proliferation were determined, and inhibition rate of a combination of an apigenin test sample with the said specific concentration and a luteolin test sample with the said specific concentration on keratinocyte proliferation was determined. Between the independent experiments, concentrations of apigenin test samples used were different, and concentrations of luteolin test samples used were also different, however, mole ratios or weight ratios of apigenin test samples to luteolin test samples were the same. Moreover, between the batches of experiments, mole ratios or weight ratios of apigenin test samples to luteolin test samples were different. 5×10^3 keratinocytes, HaCaT cells, were inoculated in a 96-well culture plate and then placed in a 37° C. and 5% CO2 incubator for culturing overnight, and cell numbers at this time point (T0) was used as a benchmark for cell proliferation. After overnight culture, a test sample was added to the cells in the culture plate (refer to Table 1, and the cells of the control group were only treated with dimethyl sulfoxide) for co-culturing for 48 hours (T48). After that, the supernatant in the culture plate was removed. After the supernatant was removed, 50 μL MTT solution (0.5 mg/mL; Life Technologies Cat. No. M-6494) was added to cells and then the culture plate was placed in a 37° C. and 5% CO2 incubator for culturing for 1.5 hours. After that, 150 μL DMSO (J. T. Baker, Cat. No. 9224-03) was added to the cells in the culture plate and shaken for 5 minutes. Thereafter, the absorbance of each well of the culture plate was determined at 570 nm by a continuous wavelength microplate reader, and inhibition rate on cell proliferation was calculated through the following formula: Inhibition rate on cell proliferation=T48 Control group570 nm−T48 Experimental group570 nm)/(T48 Control group570 nm−T0 Control group570 nm) In this experiment, the synergistic effects of apigenin and luteolin were evaluated by CalcuSyn software (BIOSOFT). CalcuSyn software is an analysis software which is commonly used to analyze the drug dosage effect of single drug and multiple drugs at present. CalcuSyn software can be used to analyze drug complex interactions and automatically quantify various phenomena such as synergism and inhibition. CalcuSyn software can process the data of individual drugs and combination drugs with constant-ratio or on-constant-ratio, and can evaluate the interaction of combination drugs by the combination index (CI) (Chou and Talalay, Adv. Enzyme Regul. 22:27-55 (1984) calculated by CalcuSyn software. Calculation formula for the combination index is shown in the following: Combination index=C1/IC1+C2/IC2 C1 and C2 are the respective concentrations of the first compound and the second compound at which the activity of achieving a specific physiological or medical purpose is 50% (or 75%, or 90%) when the first compound and the second compound are analyzed in combination; IC1 and IC2 are the respective concentrations at which the activity of achieving a specific physiological or medical purpose of the first compound and the second compound is 50% (or 75%, or 90%) when the first compound and the second compound are independently analyzed. […]

O=c1cc(-c2ccc(O)cc2)oc2cc(O)cc(O)c12 [Apigenin, apigenin]
inhibition at 3.125 µM (Batch 1, apigenin 3.125 μM/0.84 μg/mL): 0%
inhibition at 6.25 µM (Batch 1, apigenin 6.25 μM/1.69 μg/mL): 0%
inhibition at 12.5 µM (Batch 1, apigenin 12.5 μM/3.38 μg/mL): 12.2%
inhibition at 25 µM (Batch 1, apigenin 25 μM/6.76 μg/mL): 29.2%
inhibition at 50 µM (Batch 1, apigenin 50 μM/13.51 μg/mL): 72.2%
inhibition at 100 µM (Batch 1, apigenin 100 μM/27.02 μg/mL): 103%
inhibition at 3.125 µM (Batch 2, apigenin 3.125 μM/0.84 μg/mL): 3.7%
inhibition at 6.25 µM (Batch 2, apigenin 6.25 μM/1.69 μg/mL): 5.8%
inhibition at 12.5 µM (Batch 2, apigenin 12.5 μM/3.38 μg/mL): 15.7%
inhibition at 25 µM (Batch 2, apigenin 25 μM/6.76 μg/mL): 40.7%
inhibition at 50 µM (Batch 2, apigenin 50 μM/13.51 μg/mL): 75.6%
inhibition at 100 µM (Batch 2, apigenin 100 μM/27.02 μg/mL): 105%
inhibition at 3.125 µM (Batch 3, apigenin 3.125 μM/0.84 μg/mL): 0%
inhibition at 6.25 µM (Batch 3, apigenin 6.25 μM/1.69 μg/mL): 5%
inhibition at 12.5 µM (Batch 3, apigenin 12.5 μM/3.38 μg/mL): 17.2%
inhibition at 25 µM (Batch 3, apigenin 25 μM/6.76 μg/mL): 39.7%
inhibition at 50 µM (Batch 3, apigenin 50 μM/13.51 μg/mL): 75.3%
inhibition at 100 µM (Batch 3, apigenin 100 μM/27.02 μg/mL): 103%
inhibition at 3.125 µM (Batch 4, apigenin 3.125 μM/0.84 μg/mL): 0%
inhibition at 6.25 µM (Batch 4, apigenin 6.25 μM/1.69 μg/mL): 0%
inhibition at 12.5 µM (Batch 4, apigenin 12.5 μM/3.38 μg/mL): 8.9%
inhibition at 25 µM (Batch 4, apigenin 25 μM/6.76 μg/mL): 31.9%
inhibition at 50 µM (Batch 4, apigenin 50 μM/13.51 μg/mL): 71.9%
inhibition at 100 µM (Batch 4, apigenin 100 μM/27.02 μg/mL): 103%
inhibition at 3.125 µM (Batch 5, apigenin 3.125 μM/0.84 μg/mL): 2.3%
inhibition at 6.25 µM (Batch 5, apigenin 6.25 μM/1.69 μg/mL): 11.1%
inhibition at 12.5 µM (Batch 5, apigenin 12.5 μM/3.38 μg/mL): 18.3%
inhibition at 25 µM (Batch 5, apigenin 25 μM/6.76 μg/mL): 36.2%
inhibition at 50 µM (Batch 5, apigenin 50 μM/13.51 μg/mL): 77.1%
inhibition at 100 µM (Batch 5, apigenin 100 μM/27.02 μg/mL): 110%
inhibition at 1.5625 µM (Batch 6, apigenin 1.5625 μM/0.42 μg/mL): 0%
inhibition at 3.125 µM (Batch 6, apigenin 3.125 μM/0.84 μg/mL): 0%
inhibition at 6.25 µM (Batch 6, apigenin 6.25 μM/1.69 μg/mL): 0%
inhibition at 12.5 µM (Batch 6, apigenin 12.5 μM/3.38 μg/mL): 1.3%
inhibition at 25 µM (Batch 6, apigenin 25 μM/6.76 μg/mL): 48.7%
inhibition at 50 µM (Batch 6, apigenin 50 μM/13.51 μg/mL): 72%
inhibition at 0.625 µM (Batch 7, apigenin 0.625 μM/0.17 μg/mL): 8%
inhibition at 1.25 µM (Batch 7, apigenin 1.25 μM/0.34 μg/mL): 8.3%
inhibition at 2.5 µM (Batch 7, apigenin 2.5 μM/0.68 μg/mL): 12.8%
inhibition at 5 µM (Batch 7, apigenin 5 μM/1.35 μg/mL): 8.7%
inhibition at 10 µM (Batch 7, apigenin 10 μM/2.70 μg/mL): 24.7%
inhibition at 20 µM (Batch 7, apigenin 20 μM/5.40 μg/mL): 40.4%
inhibition at 0.3125 µM (Batch 8, apigenin 0.3125 μM/0.08 μg/mL): 4.3%
inhibition at 0.625 µM (Batch 8, apigenin 0.625 μM/0.17 μg/mL): 9%
inhibition at 1.25 µM (Batch 8, apigenin 1.25 μM/0.34 μg/mL): 10.1%
inhibition at 2.5 µM (Batch 8, apigenin 2.5 μM/0.68 μg/mL): 8.9%
inhibition at 5 µM (Batch 8, apigenin 5 μM/1.35 μg/mL): 10.4%
inhibition at 10 µM (Batch 8, apigenin 10 μM/2.70 μg/mL): 18.3%
inhibition at 0.15625 µM (Batch 9, apigenin 0.15625 μM/0.04 μg/mL): 1.4%
inhibition at 0.3125 µM (Batch 9, apigenin 0.3125 μM/0.08 μg/mL): 3.9%
inhibition at 0.625 µM (Batch 9, apigenin 0.625 μM/0.17 μg/mL): 2.1%
inhibition at 1.25 µM (Batch 9, apigenin 1.25 μM/0.34 μg/mL): 4.6%
inhibition at 2.5 µM (Batch 9, apigenin 2.5 μM/0.68 μg/mL): 3.2%
inhibition at 5 µM (Batch 9, apigenin 5 μM/1.35 μg/mL): 3.2%
